Results taken from ChEMBL document CHEMBL1201862, “PubChem BioAssay data set” (2004).
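Where inhibition never reached the appropriate level, the endpoint shown equals the highest concentration tested. Otherwise, values were interpolated linearly from a five-concentration, 48-hour dose response in 96-well plates. Abbreviation: GI50, concentration required for 50% inhibition of growth.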 Activity calls are given as the source filed them. Rule as the data show it: active = GI50 up to about 1.1 µM and inactive = higher.

Tests used:
Assay in all cases: DTP human tumour cell line panel, 48 h
[1] = test system: SNB-19
[2] = test system: HCT-116
[3] = test system: UACC-62
[4] = test system: TK-10
[5] = test system: NCI-H226
[6] = test system: ACHN
[7] = test system: T47D
[8] = test system: NCI-H23
[9] = test system: A549
[10] = test system: SK-OV-3
[11] = test system: KM12
[12] = test system: MDA-MB-231
[13] = test system: CAKI-1
[14] = test system: HCT-15
[15] = test system: COLO 205
[16] = test system: SK-MEL-28
[17] = test system: EKVX
[18] = test system: OVCAR-4
[19] = test system: SW-620
[20] = test system: MOLT-4

Structure (SMILES)	GI50 [1]	GI50 [2]	GI50 [3]	GI50 [4]	GI50 [5]	GI50 [6]	GI50 [7]	GI50 [8]	GI50 [9]	GI50 [10]	GI50 [11]	GI50 [12]	GI50 [13]	GI50 [14]	GI50 [15]	GI50 [16]	GI50 [17]	GI50 [18]	GI50 [19]	GI50 [20]
Oc1ccc(Cc2nccc3cc(O)c(O)cc23)cc1O	55.2 µM (inactive)	17.7 µM (inactive)	33.4 µM (inactive)	32.7 µM (inactive)	46.2 µM (inactive)	88.1 µM (inactive)	30.4 µM (inactive)	38.1 µM (inactive)	54.3 µM (inactive)	66.8 µM (inactive)	67.3 µM (inactive)	97.1 µM (inactive)	58.3 µM (inactive)	57.7 µM	21.6 µM (inactive)	79.8 µM (inactive)	26.5 µM (inactive)	41.6 µM (inactive)	36.1 µM (inactive)	22.3 µM (inactive)
CC(=O)Oc1c2c(c3n(c1=O)CCCC3)C(=O)N(c1ccccc1)C2=O	> 100 µM (inactive)	> 100 µM (inactive)	63.7 µM (inactive)	94.6 µM (inactive)	60 µM (inactive)	51.4 µM (inactive)	87.5 µM (inactive)	> 100 µM (inactive)	> 100 µM (inactive)	> 100 µM (inactive)	> 100 µM (inactive)	> 100 µM (inactive)	> 100 µM (inactive)	59 µM	> 100 µM (inactive)	> 100 µM (inactive)	94 µM (inactive)	54.3 µM (inactive)	> 100 µM (inactive)	> 100 µM (inactive)
COc1cc(OC)c(OC)cc1/C=C/c1ccccn1	> 10 µM (inactive)	> 10 µM (inactive)	> 10 µM (inactive)	> 10 µM (inactive)	> 10 µM (inactive)	> 10 µM (inactive)	> 10 µM (inactive)	> 10 µM (inactive)	> 10 µM (inactive)	> 10 µM (inactive)	> 10 µM (inactive)	> 10 µM (inactive)	> 10 µM (inactive)	> 10 µM	> 10 µM (inactive)	> 10 µM (inactive)	> 10 µM (inactive)	> 10 µM (inactive)	> 10 µM (inactive)	> 10 µM (inactive)
O/N=N/c1ccc(-c2ccccc2)cn1	18.1 µM (inactive)	9.08 µM (inactive)	7.64 µM (inactive)	22.3 µM (inactive)	17.9 µM (inactive)	2.86 µM (inactive)	8.18 µM (inactive)	4 µM (inactive)	21.7 µM (inactive)	20.3 µM (inactive)	33.9 µM (inactive)	28.6 µM (inactive)	4.55 µM (inactive)	19.6 µM	15 µM (inactive)	45.2 µM (inactive)	7.5 µM (inactive)	23.3 µM (inactive)	10.7 µM (inactive)	0.0755 µM (active)
c1ccc(C2=NC3OC2c2ccccc23)cc1 (stereo not given)	> 10 µM (inactive)	> 10 µM (inactive)	> 10 µM (inactive)	> 10 µM (inactive)	> 10 µM (inactive)	> 10 µM (inactive)	> 10 µM (inactive)	> 10 µM (inactive)	> 10 µM (inactive)	> 10 µM (inactive)	> 10 µM (inactive)	> 10 µM (inactive)	> 10 µM (inactive)	> 10 µM	> 10 µM (inactive)	> 10 µM (inactive)	> 10 µM (inactive)	> 10 µM (inactive)	> 10 µM (inactive)	> 10 µM (inactive)
O=C(O)c1cccc(/C=C/c2ccccc2)c1	> 100 µM (inactive)	> 100 µM (inactive)	> 100 µM (inactive)	> 100 µM (inactive)	> 100 µM (inactive)	> 100 µM (inactive)	> 100 µM (inactive)	> 100 µM (inactive)	> 100 µM (inactive)	> 100 µM (inactive)	> 100 µM (inactive)	> 100 µM (inactive)	> 100 µM (inactive)	> 100 µM	> 100 µM (inactive)	> 100 µM (inactive)	> 100 µM (inactive)	> 100 µM (inactive)	> 100 µM (inactive)	> 100 µM (inactive)
Nc1ccc(C(=O)N2CCC[C@H]2CO)c(N)c1	> 100 µM (inactive)	> 100 µM (inactive)	> 100 µM (inactive)	> 100 µM (inactive)	> 100 µM (inactive)	> 100 µM (inactive)	> 100 µM (inactive)	> 100 µM (inactive)	> 100 µM (inactive)	> 100 µM (inactive)	> 100 µM (inactive)	> 100 µM (inactive)	> 100 µM (inactive)	> 100 µM	> 100 µM (inactive)	> 100 µM (inactive)	> 100 µM (inactive)	> 100 µM (inactive)	> 100 µM (inactive)	> 100 µM (inactive)
C=CCOC(=O)C1=C(C)N=C2N[C@H](CCCCCCCCC)C[C@@H]3CCC1N23 (stereo not given in full)	19.2 µM (inactive)	18.8 µM (inactive)	17.7 µM (inactive)	19.2 µM (inactive)	17.9 µM (inactive)	21.5 µM (inactive)	23.2 µM (inactive)	20 µM (inactive)	30.1 µM (inactive)	27.5 µM (inactive)	34 µM (inactive)	21.5 µM (inactive)	34 µM (inactive)	21.3 µM	21.3 µM (inactive)	21.7 µM (inactive)	22.4 µM (inactive)	21 µM (inactive)	28.7 µM (inactive)	30.1 µM (inactive)
O=S(=O)(O)n1ccnc1	> 100 µM (inactive)	> 100 µM (inactive)	> 100 µM (inactive)	> 100 µM (inactive)	> 100 µM (inactive)	> 100 µM (inactive)	> 100 µM (inactive)	> 100 µM (inactive)	> 100 µM (inactive)	> 100 µM (inactive)	> 100 µM (inactive)	> 100 µM (inactive)	> 100 µM (inactive)	> 100 µM	> 100 µM (inactive)	> 100 µM (inactive)	> 100 µM (inactive)	> 100 µM (inactive)	> 100 µM (inactive)	> 100 µM (inactive)
CN1C(=O)[C@@H]2N(CSC2(C)C)C1=S	> 100 µM (inactive)	> 100 µM (inactive)	> 100 µM (inactive)	> 100 µM (inactive)	> 100 µM (inactive)	> 100 µM (inactive)	> 100 µM (inactive)	> 100 µM (inactive)	> 100 µM (inactive)	> 100 µM (inactive)	> 100 µM (inactive)	> 100 µM (inactive)	> 100 µM (inactive)	> 100 µM	> 100 µM (inactive)	> 100 µM (inactive)	> 100 µM (inactive)	> 100 µM (inactive)	> 100 µM (inactive)	> 100 µM (inactive)
CCN(CC)CCNC(=O)c1nn(-c2ccc(Cl)cc2)c2c1CCc1cc(OC)ccc1-2	10.5 µM (inactive)	3.56 µM (inactive)	2.77 µM (inactive)	11 µM (inactive)	9.38 µM (inactive)	11.4 µM (inactive)	4.3 µM (inactive)	12.8 µM (inactive)	8.22 µM (inactive)	13.7 µM (inactive)	6.53 µM (inactive)	12.1 µM (inactive)	8.41 µM (inactive)	2.92 µM	2.26 µM (inactive)	2.03 µM (inactive)	10.2 µM (inactive)	8.04 µM (inactive)	3.26 µM (inactive)	5.75 µM (inactive)
O=C(/C=C/c1ccc(OCc2ccccc2)cc1)NCc1ccc(C(=O)NCCc2c[nH]c3ccccc23)cc1	9.77 µM (inactive)	15.4 µM (inactive)	15.5 µM (inactive)	9.35 µM (inactive)	> 34.6 µM (inactive)	36.5 µM (inactive)	30.4 µM (inactive)	14.9 µM (inactive)	17.7 µM (inactive)	15.7 µM (inactive)	63.8 µM (inactive)	13.8 µM (inactive)	9.18 µM (inactive)	> 94 µM	> 75.5 µM (inactive)	74.5 µM (inactive)	> 87.1 µM (inactive)	7.76 µM (inactive)	> 65.2 µM (inactive)	> 59.8 µM (inactive)
Cc1c2ccncc2c(C)c2c1sc1ccccc12	9.4 µM (inactive)	4.49 µM (inactive)	5.24 µM (inactive)	16.9 µM (inactive)	8.13 µM (inactive)	3.85 µM (inactive)	13.1 µM (inactive)	8.2 µM (inactive)	4.33 µM (inactive)	13.1 µM (inactive)	12.1 µM (inactive)	16.5 µM (inactive)	7.45 µM (inactive)	7.24 µM	12.3 µM (inactive)	13.3 µM (inactive)	4.75 µM (inactive)	14.3 µM (inactive)	7.06 µM (inactive)	2.33 µM (inactive)
Nc1ncnc2c1ncn2C1CC(O)C(CO)O1 (stereo not given)	> 100 µM (inactive)	> 100 µM (inactive)	> 100 µM (inactive)	> 100 µM (inactive)	> 100 µM (inactive)	> 100 µM (inactive)	> 100 µM (inactive)	> 100 µM (inactive)	> 100 µM (inactive)	> 100 µM (inactive)	62.7 µM (inactive)	> 100 µM (inactive)	> 100 µM (inactive)	> 100 µM	> 100 µM (inactive)	> 100 µM (inactive)	> 100 µM (inactive)	> 100 µM (inactive)	> 100 µM (inactive)	> 100 µM (inactive)
